Data on 41 molecules can be found in patent publication US10654814B2, “Bicyclic hydroxamic acids useful as inhibitors of mammalian histone deacetylase activity” (KANCERA AB, priority 2015, dated 2020).

Structures are written as SMILES. Structures can show the parent of a compound that is named as a salt.

The target of the assay is HDAC6 (Homo sapiens (Human), UniProt Q9UBN7). As to the kind of experiment: HDAC6 in vitro enzymatic assay (fluorescence). Type of assay: biochemical. The following applies: Table 3; read-out: IC50 (nM) for inhibition of HDAC6. As to the method: Biological Tests Method for Measurement of Enzymatic Activity of HDACs Materials & Methods
Chain of HDAC6 (Q9UBN7 whole entry): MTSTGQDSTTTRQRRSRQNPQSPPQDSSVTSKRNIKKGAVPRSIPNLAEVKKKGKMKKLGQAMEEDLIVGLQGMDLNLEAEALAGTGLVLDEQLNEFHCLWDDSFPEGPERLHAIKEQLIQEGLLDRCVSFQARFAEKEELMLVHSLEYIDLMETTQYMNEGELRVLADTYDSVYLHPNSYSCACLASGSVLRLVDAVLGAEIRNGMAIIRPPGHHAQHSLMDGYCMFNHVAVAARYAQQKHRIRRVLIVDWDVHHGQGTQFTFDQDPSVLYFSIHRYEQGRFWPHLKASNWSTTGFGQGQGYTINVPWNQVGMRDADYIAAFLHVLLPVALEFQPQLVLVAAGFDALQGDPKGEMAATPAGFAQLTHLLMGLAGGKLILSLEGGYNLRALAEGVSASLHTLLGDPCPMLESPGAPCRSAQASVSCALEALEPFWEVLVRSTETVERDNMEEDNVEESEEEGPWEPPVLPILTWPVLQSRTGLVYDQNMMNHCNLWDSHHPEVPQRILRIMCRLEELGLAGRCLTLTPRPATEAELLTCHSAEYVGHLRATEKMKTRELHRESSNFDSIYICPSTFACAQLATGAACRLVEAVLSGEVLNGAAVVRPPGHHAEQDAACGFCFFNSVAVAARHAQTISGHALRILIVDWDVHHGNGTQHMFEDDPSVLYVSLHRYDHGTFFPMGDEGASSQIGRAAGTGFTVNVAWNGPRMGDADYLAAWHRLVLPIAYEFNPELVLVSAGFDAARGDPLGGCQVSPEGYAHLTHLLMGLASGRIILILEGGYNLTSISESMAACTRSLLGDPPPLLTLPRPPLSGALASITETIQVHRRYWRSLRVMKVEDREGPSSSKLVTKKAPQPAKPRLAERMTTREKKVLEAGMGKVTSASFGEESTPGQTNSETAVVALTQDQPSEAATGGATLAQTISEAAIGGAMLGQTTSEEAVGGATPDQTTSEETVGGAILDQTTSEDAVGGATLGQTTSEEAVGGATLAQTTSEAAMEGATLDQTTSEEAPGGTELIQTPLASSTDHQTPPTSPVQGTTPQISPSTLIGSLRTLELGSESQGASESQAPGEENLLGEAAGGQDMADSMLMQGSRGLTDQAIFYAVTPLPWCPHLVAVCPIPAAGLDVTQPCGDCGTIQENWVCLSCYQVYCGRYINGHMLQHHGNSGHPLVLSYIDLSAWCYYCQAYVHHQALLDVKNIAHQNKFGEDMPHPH
All Examples were tested in HDAC1,2,3,6 and 8 in vitro enzymatic assays. The assay principle is well known (Hauser et al. 2009, Bradner et al. 2010) and all necessary reagents like enzymes, substrates, developer and reference compounds are commercially available (see e.g. BPS Biosciences http://www.bpsbioscience.com/). Stock solutions (10 mM in DMSO) of compounds were serially diluted 1:3 in 11 concentrations with a top concentration of 200 μM for HDAC1,2,3 and 2 μM for HDAC6 and HDAC8. The enzymatic reactions were conducted in a mixture containing assay buffer, bovine serum albumin, HDAC substrate, and a test compound. After enzymatic reaction, developer was added and after an additional incubation time, fluorescence intensity was measured at an excitation wavelength of 360 nm and an emission wavelength of 460 nm. All experiments were performed in duplicate.
Broadly, the IC50 is the midpoint of a concentration-inhibition curve. For the molecule `Cn1c(Nc2cccc(-c3ccccc3)c2)nc2cc(C(=O)NO)ccc21` [Example 144, 2-([1,1′-biphenyl]-3-ylamino)-N-hydroxy-1-methyl-1H-benzo[d]imidazole-5-carboxamide], the half-maximal inhibitory concentration (IC50) was determined as 7 nM.
As to `O=C(NO)c1ccc2cc(CO)oc2c1` [Example 119, N-hydroxy-2-(hydroxymethyl)-1-benzofuran-6-carboxamide], the IC50 is 74 nM.
`COc1ccc(-c2nc3cc(C(=O)NO)ccc3o2)cc1` [Example 11, N-hydroxy-2-(4-methoxyphenyl)-1,3-benzoxazole-5-carboxamide]: the IC50 is 8 nM.
For `Cn1c(Nc2ccccc2)nc2cc(C(=O)NO)ccc21` [Example 137, N-Hydroxy-1-methyl-2-(phenylamino)-1H-benzimidazole-5-carboxamide], the IC50 came out at 39 nM.
As for `CC(C)c1ccc(-c2cc3ncc(C(=O)NO)cc3s2)cc1` [Example 110, N-Hydroxy-2-[4-(1-methylethyl)phenyl]thieno[3,2-b]pyridine-6-carboxamide], the IC50 is 50 nM.
`CC(C)c1ccc(-c2cc3cc(C(=O)NO)cnc3s2)cc1` [Example 87, N-Hydroxy-2-[4-(1-methylethyl)phenyl]thieno[2,3-b]pyridine-5-carboxamide]: the IC50 is 42 nM.
As to `CC(C)c1ccc(-c2cc3ncc(C(=O)NO)cc3o2)cc1` [Example 115, N-Hydroxy-2-[4-(1-methylethyl)phenyl]furo[3,2-b]pyridine-6-carboxamide], the IC50 came to 23 nM.
As for `Cn1c(N2CCC(Cc3ccccc3)CC2)nc2cc(C(=O)NO)ccc21` [Example 143, 2-(4-benzylpiperidin-1-yl)-N-hydroxy-1-methyl-1H-benzo[d]imidazole-5-carboxamide], the figure is 7 nM; as for `O=C(NO)c1ccc2oc(N(Cc3ccccc3)c3ccccc3)nc2c1` [Example 241, 2-[benzyl(phenyl)amino]-N-hydroxy-1,3-benzoxazole-5-carboxamide], 27 nM; as for `CC1CCN(c2ccc(-c3nc4cc(C(=O)NO)ccc4o3)cn2)CC1` [Example 152, N-Hydroxy-2-[6-(4-methylpiperidin-1-yl)pyridin-3-yl]-1,3-benzoxazole-5-carboxamide trifluoroacetate], 30 nM.
Turning to `COCCN(C)Cc1cccc(-c2nc3cc(C(=O)NO)ccc3o2)c1` [Example 205, N-hydroxy-2-(3-{[(2-methoxy-ethyl)(methyl)amino]methyl}phenyl)-1,3-benzoxazole-5-carboxamide trifluoroacetate], the IC50 came to 64 nM.
With `O=C(NO)c1ccc2oc(-c3ccc(NC4CCCCCC4)nc3)nc2c1` [Example 158, 2-[6-(cycloheptylamino)pyridin-3-yl]-N-hydroxy-1,3-benzoxazole-5-carboxamide trifluoroacetate] the figure was 34 nM; with `Cc1ncccc1-c1nc2cc(C(=O)NO)ccc2o1` [Example 40, N-Hydroxy-2-(2-methylpyridin-3-yl)-1,3-benzoxazole-5-carboxamide trifluoroacetate], 54 nM.
As for `COc1ncccc1-c1cc2cc(C(=O)NO)ccc2s1` [Example 97, N-hydroxy-2-(2-methoxypyridin-3-yl)-1-benzothiophene-5-carboxamide], the figure is 47 nM.
Consider `CC(C)c1ccc(-c2nc3ccc(C(=O)NO)cc3o2)cc1` [Example 49, N-Hydroxy-2-[4-(1-methylethyl)phenyl]-1,3-benzoxazole-6-carboxamide], for which the IC50 is 9 nM.
With `CN(C)Cc1ccc(-c2cc3ccc(C(=O)NO)cc3o2)cc1` [Example 283, 2-{4-[(dimethylamino)methyl]phenyl}-N-hydroxy-1-benzofuran-6-carboxamide trifluoroacetate] the figure was 7 nM; with `Cn1c(NCCc2ccccc2)nc2cc(C(=O)NO)ccc21` [Example 140, N-hydroxy-1-methyl-2-(phenethylamino)-1H-benzo[d]imidazole-5-carboxamide], 10 nM.
With `O=C(NO)c1ccc2oc(N3CCc4ccccc4C3)nc2c1` [Example 46, 2-(3,4-dihydroisoquinolin-2(1H)-yl)-N-hydroxy-1,3-benzoxazole-5-carboxamide] the figure was 48 nM; with `O=C(NO)c1ccc2sc(Cc3ccc(-c4ccncc4)cc3)nc2c1` [Example 272, N-Hydroxy-2-(4-pyridin-4-ylbenzyl)-1,3-benzothiazole-5-carboxamide trifluoroacetate], 6 nM; with `CC(C)CN(Cc1nc2cc(C(=O)NO)ccc2s1)CC(C)C` [Example 274, 2-{[Bis(2-methylpropyl)amino]methyl}-N-hydroxy-1,3-benzothiazole-5-carboxamide trifluoroacetate], 16 nM.
With `O=C(NO)c1ccc2sc(COCc3ccccc3)nc2c1` [Example 270, 2-[(Benzyloxy)methyl]-N-hydroxy-1,3-benzothiazole-5-carboxamide] the figure was 4 nM; with `CC(C)c1ccc(-c2nc3cc(C(=O)NO)ccc3o2)cc1F` [Example 211, 2-[3-Fluoro-4-(1-methylethyl)phenyl]-N-hydroxy-1,3-benzoxazole-5-carboxamide], 38 nM.
As for `O=C(NO)c1ccc2oc(-c3ccccc3CO)cc2c1` [Example 281, N-hydroxy-2-[2-(hydroxymethyl)phenyl]-1-benzofuran-5-carboxamide], the IC50 is 92 nM.
For `O=C(NO)c1ccc2oc(-c3ccc(-c4ccccc4)cc3F)nc2c1` [Example 173, 2-(3-Fluorobiphenyl-4-yl)-N-hydroxy-1,3-benzoxazole-5-carboxamide], the half-maximal inhibitory concentration (IC50) turned out to be 20 nM.
With `CC(C)c1ccc(Nc2nc3cc(C(=O)NO)ccc3n2C)cc1` [Example 138, N-hydroxy-2-((4-isopropylphenyl)amino)-1-methyl-1H-benzo[d]imidazole-5-carboxamide] the figure was 22 nM; with `COc1cccc2cc(-c3nc4cc(C(=O)NO)ccc4s3)oc12` [Example 81, N-Hydroxy-2-(7-methoxy-1-benzofuran-2-yl)-1,3-benzothiazole-5-carboxamide], 33 nM; with `C[C@@H]1CN(Cc2cccc(-c3nc4cc(C(=O)NO)ccc4o3)c2)C[C@H](C)O1` [Example 202, 2-(3-{[(cis)-2,6-dimethylmorpholin-4-yl]methyl}phenyl)-N-hydroxy-1,3-benzoxazole-5-carboxamide trifluoroacetate], 53 nM.
On to `O=C(NO)c1ccc2oc(-c3ccc(CN4CCN(c5ccncc5)CC4)cc3)nc2c1` [Example 209, N-hydroxy-2-{4-[(4-pyridin-4-ylpiperazin-1-yl)methyl]phenyl}-1,3-benzoxazole-5-carboxamide trifluoroacetate], for which the IC50 came out at 35 nM.
`CS(=O)(=O)c1ccc(-c2ccc(-c3nc4cc(C(=O)NO)ccc4o3)cc2)cc1` [Example 180, N-hydroxy-2-[4′-(methylsulfonyl)biphenyl-4-yl]-1,3-benzoxazole-5-carboxamide]: the IC50 was found to be 8 nM.
For the molecule `O=C(NO)c1ccc2nc(-c3ccc4[nH]nnc4c3)oc2c1` [Example 54, 2-(1H-Benzotriazol-5-yl)-N-hydroxy-1,3-benzoxazole-6-carboxamide], the IC50 amounted to 60 nM.
On to `O=C(NO)c1ccc2oc(-c3ccc(-c4ccncc4)cc3)nc2c1` [Example 22, N-hydroxy-2-(4-pyridin-4-ylphenyl)-1,3-benzoxazole-5-carboxamide], for which the IC50 was 13 nM.
With `COc1ccc(-c2cc3cc(C(=O)NO)ccc3s2)cc1` [Example 93, N-hydroxy-2-(4-methoxyphenyl)-1-benzothiophene-5-carboxamide] the figure was 9 nM; with `O=C(NO)c1ccc2oc(-c3ccc(-c4ccc(CN5CCCCC5)cc4)cc3)nc2c1` [Example 30, N-Hydroxy-2-[4′-(piperidin-1-ylmethyl)biphenyl-4-yl]-1,3-benzoxazole-5-carboxamide trifluoroacetate], 14 nM; with `Cn1c(Nc2cccc(OCc3ccccc3)c2)nc2cc(C(=O)NO)ccc21` [Example 142, 2-((3-(benzyloxy)phenyl)amino)-N-hydroxy-1-methyl-1H-benzo[d]imidazole-5-carboxamide], 1 nM.
For the molecule `O=C(NO)c1ccc2oc(N3CCC(Cc4ccccc4)CC3)nc2c1` [Example 48, 2-(4-benzylpiperidin-1-yl)-N-hydroxy-1,3-benzoxazole-5-carboxamide], the IC50 was determined as 73 nM.
With `O=C(NO)c1ccc2nc(N3CCN(c4ccc(F)cc4)CC3)[nH]c2c1` [Example 126, 2-(4-(4-fluorophenyl)piperazin-1-yl)-N-hydroxy-1H-benzo[d]imidazole-6-carboxamide] the figure was 85 nM.
As for `CN(Cc1ccccc1)c1nc2cc(C(=O)NO)ccc2o1` [Example 44, 2-[benzyl(methyl)amino]-N-hydroxy-1,3-benzoxazole-5-carboxamide], the figure is 63 nM; as for `O=C(NO)c1ccc2oc(-c3ccccc3)nc2c1` [Example 7, N-hydroxy-2-phenyl-1,3-benzoxazole-5-carboxamide], 15 nM; as for `O=C(NO)c1ccc2oc(-c3ccc(Br)cc3)nc2c1` [Example 2, 2-(4-bromophenyl)-N-hydroxy-1,3-benzoxazole-5-carboxamide], 4 nM.
On to `O=C(NO)c1ccc2sc(-c3ccc4[nH]ccc4c3)cc2c1` [Example 95, N-hydroxy-2-(1H-indol-5-yl)-1-benzothiophene-5-carboxamide], for which the IC50 amounted to 22 nM.
With `O=C(NO)c1ccc2sc(-c3cc(F)ccc3O)cc2c1` [Example 105, 2-(5-fluoro-2-hydroxyphenyl)-N-hydroxy-1-benzothiophene-5-carboxamide] the figure was 37 nM.
